Consider one substance from patent publication US20080214680A1, “Application of arsenic as a cancer prevention agent” (priority 2003, published 2008).

Experiment [1] relates to acute prontyelocytic leukemia cells. The note with it: acute treatment of cells; cited from earlier work.
Experiment [2] has the same test system. Kind of experiment: Chen et al.: acute treatment of leukemia cells with arsenic trioxide. The format is cell-based. The note with it: equivalent of 0.1 μmoles per liter. The method, then:
Bae cites a paper by Chen et at. (May 1, 1997) in his references, published more than a year before his patent filing, which recites the use of arsenic trioxide (As2O3) as an acute treatment on acute prontyelocytic leukemia cells. The treatment is effective over an exposure range of 0.5-2.0 μmoles per liter, but ineffective at 0.1 μmoles per liter. These values are equivalent to […] and 0.02 μg/ml, respectively. Chen requires just 9-36 percent of Bae's arsenic hexoxide dose to produce an acute effect on cells with arsenic trioxide. (Two percent of Bae's dose [0.1 μmoles per liter] is an […] cellular dose for arsenic trioxide.) For treating humans, Bae's prolonged daily exposure to arsenic hexoxide is 1818-times greater than […] effective cellular dose and 40,000-times greater than 50 ppb. Chen reports no human exposure data, but if he treated cancers in humans with an 1818-times greater daily dose of arsenic trioxide, that exposure would be 3600-14,400-times greater than this invention's 50 ppb or μg/L. Chen's ineffective dose would be 720-times greater than 50 μg/L.

With arsenic trioxide, in experiment [1], the effective exposure range is recorded as 0.5-2.0 μmoles per liter and the ineffective exposure is 0.1 μmoles per liter. Besides, in experiment [2], the “ineffective exposure, mass equivalent” value was 0.02 µg/mL.
